The source of these data is US7449454B2, “Metallotexaphyrin derivatives” (Pharmacyclics, Inc., priority 2000, dated 2008).

The nature of series [1]: Extinction coefficient by UV/Vis. The format is physicochemical. Conditions: for ε(methanol): in M-1·cm-1 (unit assumed). On the procedure:
Four samples of increasing amounts of a test compound of Formula I (between 3 mg and 11 mg) were put into separate 10 ml flasks and dissolved in methanol. Each of the solutions and one control sample (containing no test compound) were diluted to volume. The absorption at 475 nm was measured by UV/Vis and recorded for each of the five samples. The extinction coefficient for each sample was determined accordingly.
The extinction coefficient for the test compound at 475 nm was determined by averaging the extinction coefficient for the four samples (not including the control). The above steps were repeated (at 733 nm) to determine the extinction coefficient for the test compound at 733 nm. When determining the extinction coefficient of aggregated test compounds LuTex acetate, cholate or deoxycholate, the extinction coefficient at 733 nm is not measured. Instead, the above steps were repeated substituting 4% acetic acid/methanol for methanol.

The nature of series [2]: Solution pH in deionized water. The following applies: H2O. In kind it is physicochemical. On the procedure:
The test compound was mixed in 5 ml of deionized water to achieve a 2 mg/ml solution. The solution pH was measured using a Beckman pH meter.

Series [3] is described as follows: Octanol/water partition coefficient. The format is physicochemical. On the procedure: The partition coefficient was measured using an adaptation of the procedure outlined in Drug Stability: Principles and Practices (AAI, Inc. Wilmington, N.C., 2nd Edition, 1995). A 10 ml solution of 10 mg/ml of the test compound of Formula I dissolved in deionized water was placed in a separator funnel, to which 10 ml of 1-octanol was added. The combined mixture was stirred. The mixture was left to separate and the absorption of the compound was measured in the water phase and in the octanol phase by UV/Vis at 413-417 nm (413-417 offers the closest match in absorbance between the octanol phase and the water phase. The octanol water partition coefficient is determined by the formula: […]
The above steps were then repeated using a 10 ml sample of test compound at 1.0 mg/ml.

Series [4] is described as follows: Solubility in H2O (deionized water).
Method: This mixture was then shaken, and 1.5 ml of the supernatant removed by a syringe equipped with a 0.22 μm filter unit. After discarding the first 1 mL of the filtrate, the remaining 0.5 mL was collected and saved. 0.1 ml of the saved filtrate was added to a 25 ml flask and diluted with 4% Acetic Acid/Methanol solution to volume. The absorption of the diluted solution at 475 nm was measured by UVN is at 1, 4, and 24 hours after the solutions had been shaken as described above.
Series [5] in a line: Plasma concentration after injection in atherosclerotic rabbits. Conditions: rabbit, 10 mg/kg injected, 2 mg/ml solution. In kind it is in vivo, NZW rabbits. On the procedure: Plasma pK and biodistribution of the different test compounds of Formula I in plaque are determined and compared with the plasma pK and biodistribution in normal arterial walls. Sixteen normal male NZW rabbits, each weighing 3.5-4.0 kg are obtained from R&R Rabbitry in Stanwood Oreg. Each rabbit is given an intramuscular injection of Ketamine/Rompun [(8.4 mg/kg)/(1.2 mg/kg)] and allowed to relax until the anesthetic takes effect. To induce deep anesthesia, the rabbits then receive a second dose of Ketamine/Rompun [(8.4 mg/kg)/1.2 mg/kg)] via intravenous injection. To expose the abdomen and back legs, each rabbit is shaved with a size 40 blade. Their eyes are coated with lubricant eye ointment (Artificial Tears).
A femoral artery cut down is performed on the right side of the rabbits. Lidocaine (2%) is injected subcutaneously around the femoral artery as a local anesthetic and also applied topically to prevent spasms. A No.4 French Fogarty balloon embolectomy catheter is inserted retrograde 15 cm into the abdominal aorta. The balloon is inflated with 0.5-0.75 ml of hypaque contrast and pulled 3.5 cm distally toward the femoral artery six times. The catheter is then withdrawn. […]
A 3 ml blood sample is taken from each of the rabbits and the cholesterol level for each sample is determined and recorded. […]
The clearance rate of the test compound is also particularly important to measure. Plasma samples from each of the test compounds (see part A of this example) are mixed with 10 mM Triton X-100 and the fluorescence optimum is measured at 745 nm by scanning between 700-800 nm using a 450 nm excitation. A standard curve is run to insure that the fluorescence of the samples lies on the linear portion of the curve. The entire fluorescence emission spectrum is observed by using both a monochromator and CCD array. This permits differentiating between the peak at 745 nm and any possible extraneous fluorescence that might have a different optimum, and tail off into the 745 nm region. Test compound accumulation is expressed as μg drug/g tissue (wet weight) or μg/ml in plasma.

For the substance “The lutetium (III) complex of: 4,5-diethyl-10,23-dimethyl-9,24-bis(3-hydroxypropyl)-16,17-bis[2-[2-(2-methoxyethoxy)ethoxy]ethoxy]pentaazapentacyclo[20.2.1.1^3,6.1^8,11.0^14,19]-heptacosa-1,3,5,7,9,11(27),12,14,16,18,20,22(25), 23-tridecaene bis benzoate [LuTex bis benzoate]”, the “ε(methanol)” value in series [1] (at 475 nm) turned out to be 122800. The “ε(methanol)” value in series [1] (at 733 nm) is 40600. In series [2], this substance returned a pH of 6.1. Moreover, in series [3] (0.05 mg/ml), the “K (octanol/water)” value worked out at 0.34 and the “pH(octanol/water)” value is reported as 6.6.

“The lutetium (III) complex of: 4,5-diethyl-10,23-dimethyl-9,24-bis(3-hydroxypropyl)-16,17-bis[2-[2-(2-methoxyethoxy)ethoxy]ethoxy]pentaazapentacyclo[20.2.1.1^3,6.1^8,11.0^14,19]-heptacosa-1,3,5,7,9,11 (27),12,14,16,18,20,22(25),23-tridecaene bis deoxycholate [LuTex bis deoxycholate]” had a ε(4% acetate/methanol) in series [1] (4% acetate/methanol, wavelength not given) of 135000 M⁻¹ cm⁻¹. For the same substance, the “ε(methanol)” value in series [1] (wavelength not printed (aggregated compound, 733 nm not measured)) stood at 136000.

On to “lutetium complex of 4,5-diethyl-10,23-dimethyl-9,24-bis(3-hydroxypropyl)-16,17-bis[2-[2-(2-methoxyethoxy)ethoxy]ethoxy]pentaazapentacyclo-[20.2.1.1^3,6.1^8,11.0^14,19]heptacosa-1,3,5,7,9,11(27),12,14,16,18,20,22(25),23-tridecaene bis gluconate [LuTex bis gluconate]”, for which the “solubility in deionized water” value in series [4] was in the range of 50 to 80 mg/mL.

As to “The lutetium (III) complex of: 4,5-diethyl-10,23-dimethyl-9,24-bis(3-hydroxypropyl)-16,17-bis[2-[2-(2-methoxyethoxy)ethoxy]ethoxy]pentaazapentacyclo[20.2.1.1^3,6.1^8,11.0^14,19]-heptacosa-1,3,5,7,9,11(27),12,14,16,18,20,22(25), 23-tridecaene bis formate [LuTex bis formate]”, the “ε(methanol)” value in series [1] (at 475 nm) is listed as 126400; in series [1] (at 733 nm), 41700. This substance also yielded a pH in series [2] of 5.5. Further, the “K (octanol/water)” value in series [3] (0.05 mg/ml) and in series [3] (0.5 mg/ml) was 0.02 in each case. For the same substance, the “pH(octanol/water)” value is listed as 5.6 in series [3] (0.05 mg/ml) and 5.1 in series [3] (0.5 mg/ml). Also, the entries for the “Plasma Concentration” value in series [5] (1 Hour post injection), in series [5] (5 Hours post injection) and in series [5] (24 Hours post injection) were 3900 ng/mL, 500 ng/mL and 300 ng/mL, respectively. The “solubility in deionized water” value in series [4] fell in the range of 2 to 2.5 mg/mL.
